# Data from ChEMBL document CHEMBL1201862, “PubChem BioAssay data set” (2004).
# Calls of active or inactive are those of the source.
# Experiments:
# [1] = molecular target: UDP-galactopyranose mutase (Mycobacterium tuberculosis, UniProt P9WIQ1); assay: Inhibitors of Mycobacterium tuberculosis UDP-galactopyranose mutase (UGM) enzyme Measured in Biochemical System Using Plate Reader - 2105-02_Inhibitor_Dose_CherryPick_Activity. [Related pubchem assays (depositor defined):AID504439]
# [2] = molecular target: T1, RNA-binding protein pos-1 (Caenorhabditis elegans, UniProt G5EF15); assay: inhibitors of POS-1/mex-3 RNA binding, dose response, biochemical, fluorescence polarization (AID 1964);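 further: purified POS-1 fused to maltose binding protein made in E. coli; potency of compounds blocking POS-1 binding to fluorescent RNA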
# T1 sequence (G5EF15 whole entry): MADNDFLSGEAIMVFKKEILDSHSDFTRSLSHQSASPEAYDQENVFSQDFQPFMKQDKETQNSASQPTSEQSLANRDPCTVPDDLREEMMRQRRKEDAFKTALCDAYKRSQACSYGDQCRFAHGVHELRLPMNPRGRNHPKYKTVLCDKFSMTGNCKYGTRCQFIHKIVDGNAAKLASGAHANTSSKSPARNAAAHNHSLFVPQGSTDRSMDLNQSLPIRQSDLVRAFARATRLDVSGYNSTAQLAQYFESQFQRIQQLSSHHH
# [3] = molecular target: T2, Sphingosine 1-phosphate receptor 1 (Homo sapiens, UniProt P21453); assay type: functional
# T2 sequence (P21453 whole entry): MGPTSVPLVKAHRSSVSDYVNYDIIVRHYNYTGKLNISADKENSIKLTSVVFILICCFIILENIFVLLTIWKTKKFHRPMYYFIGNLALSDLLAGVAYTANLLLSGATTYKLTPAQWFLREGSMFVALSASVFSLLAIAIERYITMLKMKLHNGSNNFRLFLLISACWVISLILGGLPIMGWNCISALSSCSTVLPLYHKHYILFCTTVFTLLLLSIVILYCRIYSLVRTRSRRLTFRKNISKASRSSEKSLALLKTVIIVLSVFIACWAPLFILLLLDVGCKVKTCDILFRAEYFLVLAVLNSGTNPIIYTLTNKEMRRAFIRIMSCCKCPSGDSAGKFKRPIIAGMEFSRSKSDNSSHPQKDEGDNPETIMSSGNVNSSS
# [4] = molecular target: T3, Sphingosine 1-phosphate receptor 4 (Homo sapiens, UniProt O95977); assay: Late stage fluorescence dose response cell-based screening assay for antagonists of the Sphingosine 1-Phosphate Receptor 4 (S1P4). [Related pubchem assays: 1524 (Confirmation screen (S1P4 antagonists).), 1510 (Primary screen (S1P4 antagonists).), 1853 (Summary AID (S1P4 antagonists).), 1692 (Dose response screen (S1P4 antagonists).)]; assay type: functional
# T3 sequence (O95977 whole entry): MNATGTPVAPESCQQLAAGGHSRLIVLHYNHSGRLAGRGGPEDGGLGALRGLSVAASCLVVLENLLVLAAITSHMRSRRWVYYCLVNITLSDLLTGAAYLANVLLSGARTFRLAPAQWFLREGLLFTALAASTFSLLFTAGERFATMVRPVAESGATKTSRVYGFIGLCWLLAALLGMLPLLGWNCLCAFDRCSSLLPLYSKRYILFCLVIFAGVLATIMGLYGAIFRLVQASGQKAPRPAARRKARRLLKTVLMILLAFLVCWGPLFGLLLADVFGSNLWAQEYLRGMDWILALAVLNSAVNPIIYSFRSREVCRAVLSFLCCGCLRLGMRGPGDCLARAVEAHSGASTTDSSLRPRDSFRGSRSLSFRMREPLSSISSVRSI
# [5] = growth suppression of beta-catenin-knockout colon cells, dose response, cell-based, HCT116, human colon tumor (AID 1045); assay type: functional;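 further: HCT116 colon tumor cells with beta catenin knocked out; cells exposed to compound for 60 hours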
# [6] = molecular target: Sphingosine 1-phosphate receptor 2 (Homo sapiens, UniProt O95136); assay: Late stage counterscreen assay for S1P4 antagonists: Fluorescence dose response cell-based screening assay for antagonists of the Sphingosine 1-Phosphate Receptor 2 (S1P2). [Related pubchem assays (depositor defined):AID1510, AID1524, AID1692, AID1853, AID2332, AID489009, AID489017]; assay type: functional
# Sphingosine 1-phosphate receptor 2, sequence (O95136 whole entry): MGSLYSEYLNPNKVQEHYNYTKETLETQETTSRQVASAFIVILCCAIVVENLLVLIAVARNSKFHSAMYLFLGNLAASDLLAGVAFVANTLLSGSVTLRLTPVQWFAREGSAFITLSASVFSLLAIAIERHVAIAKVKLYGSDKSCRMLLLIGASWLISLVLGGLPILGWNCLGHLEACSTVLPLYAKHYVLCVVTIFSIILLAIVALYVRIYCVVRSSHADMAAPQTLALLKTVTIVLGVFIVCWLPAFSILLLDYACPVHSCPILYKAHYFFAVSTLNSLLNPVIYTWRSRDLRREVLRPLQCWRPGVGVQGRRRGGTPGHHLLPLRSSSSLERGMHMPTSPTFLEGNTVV
# Integrin alpha-4 = Integrin alpha-4 (Homo sapiens, UniProt P13612); assay: VLA-4 integrin allosteric ligands, SAR follow-up, cell-based, LIBS antibody binding, flow cytometry (AID 488791); assay type: functional
# Integrin alpha-4, sequence (P13612 whole entry): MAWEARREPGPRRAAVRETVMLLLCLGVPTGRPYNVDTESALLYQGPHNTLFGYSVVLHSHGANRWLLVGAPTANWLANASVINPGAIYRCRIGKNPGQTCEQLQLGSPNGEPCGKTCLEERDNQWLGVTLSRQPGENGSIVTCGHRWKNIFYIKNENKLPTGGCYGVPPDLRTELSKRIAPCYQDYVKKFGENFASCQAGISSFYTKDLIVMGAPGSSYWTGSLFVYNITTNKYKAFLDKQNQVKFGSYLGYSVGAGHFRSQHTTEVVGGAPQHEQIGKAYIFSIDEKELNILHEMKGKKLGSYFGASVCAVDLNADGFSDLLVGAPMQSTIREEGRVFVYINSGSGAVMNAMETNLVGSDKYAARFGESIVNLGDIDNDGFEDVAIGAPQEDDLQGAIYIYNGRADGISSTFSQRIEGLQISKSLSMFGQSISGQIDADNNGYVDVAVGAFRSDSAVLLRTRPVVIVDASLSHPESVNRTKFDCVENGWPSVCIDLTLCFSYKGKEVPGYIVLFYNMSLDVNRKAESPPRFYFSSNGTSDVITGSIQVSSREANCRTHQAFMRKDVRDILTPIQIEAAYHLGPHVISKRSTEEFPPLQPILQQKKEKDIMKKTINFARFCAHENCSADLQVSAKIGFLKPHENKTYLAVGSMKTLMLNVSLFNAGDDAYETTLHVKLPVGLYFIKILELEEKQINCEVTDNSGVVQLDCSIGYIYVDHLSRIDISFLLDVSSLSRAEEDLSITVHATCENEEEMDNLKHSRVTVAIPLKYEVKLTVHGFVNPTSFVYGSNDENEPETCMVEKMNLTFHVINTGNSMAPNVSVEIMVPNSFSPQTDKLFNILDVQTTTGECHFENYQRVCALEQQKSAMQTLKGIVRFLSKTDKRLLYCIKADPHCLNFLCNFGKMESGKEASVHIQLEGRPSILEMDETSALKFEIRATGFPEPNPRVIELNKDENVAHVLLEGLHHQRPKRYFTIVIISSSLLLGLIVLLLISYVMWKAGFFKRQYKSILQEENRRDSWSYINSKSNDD
# [7] = molecular target: G-protein coupled receptor 55 (Homo sapiens, UniProt Q9Y2T6); assay: GPR55 agonists via beta-arrestin recruitment, primary screen, imaging, U2OS cells, beta-arrestin-GFP redistribution (AID 1961); assay type: functional
# G-protein coupled receptor 55, sequence (Q9Y2T6 whole entry): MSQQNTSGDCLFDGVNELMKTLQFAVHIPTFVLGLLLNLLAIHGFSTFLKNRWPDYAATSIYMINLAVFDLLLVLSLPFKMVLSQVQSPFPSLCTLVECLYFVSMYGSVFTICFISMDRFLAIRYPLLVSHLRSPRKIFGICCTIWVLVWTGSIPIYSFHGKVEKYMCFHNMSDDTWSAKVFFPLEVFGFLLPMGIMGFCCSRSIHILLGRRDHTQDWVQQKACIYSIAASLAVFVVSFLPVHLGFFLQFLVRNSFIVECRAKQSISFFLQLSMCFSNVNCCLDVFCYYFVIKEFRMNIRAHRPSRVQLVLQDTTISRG
# [8] = molecular target: T3, Sphingosine 1-phosphate receptor 4; assay: Fluorescence dose response cell-based high throughput screening assay for antagonists of the Sphingosine 1-Phosphate Receptor 4 (S1P4). [Related pubchem assays: 1524 (Confirmation in triplicates.), 1510 (Primary screen.)]; assay type: functional
# [9] = molecular target: Sphingosine 1-phosphate receptor 3 (Homo sapiens, UniProt Q99500); assay: Late stage counterscreen assay for S1P4 antagonists: Fluorescence dose response cell-based screening assay for antagonists of the Sphingosine 1-Phosphate Receptor 3 (S1P3). [Related pubchem assays (depositor defined):AID1510, AID1524, AID1692, AID1853, AID2332, AID489009, AID489017]; assay type: functional
# Sphingosine 1-phosphate receptor 3, sequence (Q99500 whole entry): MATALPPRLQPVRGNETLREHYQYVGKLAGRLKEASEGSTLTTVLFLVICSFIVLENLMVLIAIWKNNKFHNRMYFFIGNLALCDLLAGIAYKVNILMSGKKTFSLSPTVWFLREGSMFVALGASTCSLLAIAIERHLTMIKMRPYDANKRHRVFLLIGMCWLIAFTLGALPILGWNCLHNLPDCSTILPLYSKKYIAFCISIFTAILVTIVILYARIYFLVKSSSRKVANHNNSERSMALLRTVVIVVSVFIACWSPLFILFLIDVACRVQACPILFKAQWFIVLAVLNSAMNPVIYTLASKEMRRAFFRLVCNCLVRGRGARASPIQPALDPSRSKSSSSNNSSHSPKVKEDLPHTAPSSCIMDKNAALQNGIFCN
# [10] = molecular target: T2, Sphingosine 1-phosphate receptor 1; assay: Late stage counterscreen assay for S1P4 antagonists: Fluorescence dose response cell-based screening assay for antagonists of the Sphingosine 1-Phosphate Receptor 1 (S1P1). [Related pubchem assays (depositor defined):AID1510, AID1524, AID1692, AID1853, AID2332, AID489009, AID489017]; assay type: functional
# [11] = molecular target: Sphingosine 1-phosphate receptor 5 (Homo sapiens, UniProt Q9H228); assay: Late stage counterscreen assay for S1P4 antagonists: Fluorescence dose response cell-based screening assay for antagonists of the Sphingosine 1-Phosphate Receptor 5 (S1P5). [Related pubchem assays (depositor defined):AID1510, AID1524, AID1692, AID1853, AID2332, AID489009, AID489017]; assay type: functional
# Sphingosine 1-phosphate receptor 5, sequence (Q9H228 whole entry): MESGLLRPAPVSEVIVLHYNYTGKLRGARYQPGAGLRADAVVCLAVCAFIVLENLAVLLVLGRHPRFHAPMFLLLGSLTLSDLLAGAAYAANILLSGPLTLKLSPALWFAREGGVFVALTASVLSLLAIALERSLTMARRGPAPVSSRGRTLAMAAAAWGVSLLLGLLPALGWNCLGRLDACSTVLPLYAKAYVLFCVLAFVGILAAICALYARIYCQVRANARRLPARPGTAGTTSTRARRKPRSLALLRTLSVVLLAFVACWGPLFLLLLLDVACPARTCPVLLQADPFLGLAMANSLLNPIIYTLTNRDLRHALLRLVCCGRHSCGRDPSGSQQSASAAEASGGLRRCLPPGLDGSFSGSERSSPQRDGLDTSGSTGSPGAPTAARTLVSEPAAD
# INS1 = assay: beta cell apoptosis inhibitors, cytokine rescue, dose response, luminescence, retest (AID 449756); assay type: functional, cell-based; conditions: Rattus norvegicus;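 further: cell death triggered by IL-1 beta plus TNF-alpha plus IFN-gamma mixture; protective hits raise ATP signal compared with cytokine alone wells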
# [12] = molecular target: T4, Heat shock factor protein 1 (Mus musculus, UniProt P38532); assay: inhibition of MG132-induced HSE-luciferase signal, confirmation, cell-based, NIH3T3, luminescence, dose retest (AID 2382); assay type: functional;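 further: NIH3T3 fibroblasts with HSF1-driven luciferase reporter stressed by proteasome inhibitor MG132; luminescence from HSF1-driven luciferase expression after 8 hours of MG132 stress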
# T4 sequence (P38532 whole entry): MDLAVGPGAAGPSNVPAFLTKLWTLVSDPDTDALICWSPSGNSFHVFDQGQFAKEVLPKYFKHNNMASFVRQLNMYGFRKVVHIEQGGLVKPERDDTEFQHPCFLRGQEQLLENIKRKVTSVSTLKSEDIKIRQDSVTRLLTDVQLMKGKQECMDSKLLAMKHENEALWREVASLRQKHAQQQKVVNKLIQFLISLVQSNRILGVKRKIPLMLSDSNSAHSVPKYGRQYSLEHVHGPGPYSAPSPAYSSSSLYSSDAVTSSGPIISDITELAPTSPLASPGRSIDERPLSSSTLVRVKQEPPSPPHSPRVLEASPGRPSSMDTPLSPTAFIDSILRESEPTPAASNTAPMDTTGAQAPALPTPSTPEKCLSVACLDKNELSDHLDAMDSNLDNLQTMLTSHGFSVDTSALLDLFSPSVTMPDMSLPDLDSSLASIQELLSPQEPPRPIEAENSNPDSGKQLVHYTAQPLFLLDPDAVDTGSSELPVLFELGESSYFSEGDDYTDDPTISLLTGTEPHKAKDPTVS
# [13] = growth suppression of PTEN-null colon cells, dose response, cell-based, HCT116 PTEN knockout (AID 1047); assay type: functional;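 further: HCT116 colon tumor cells with PTEN knocked out; cells exposed to compound for 60 hours before readout; potency for loss of cell viability measured by luminescence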
# Cytochrome P450 1A2 [14] = molecular target: T5, Cytochrome P450 1A2 (Homo sapiens, UniProt P05177);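 further: PubChem cytochrome P450 panel assay, CYP1A2 panel member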
# T5 sequence (P05177 whole entry): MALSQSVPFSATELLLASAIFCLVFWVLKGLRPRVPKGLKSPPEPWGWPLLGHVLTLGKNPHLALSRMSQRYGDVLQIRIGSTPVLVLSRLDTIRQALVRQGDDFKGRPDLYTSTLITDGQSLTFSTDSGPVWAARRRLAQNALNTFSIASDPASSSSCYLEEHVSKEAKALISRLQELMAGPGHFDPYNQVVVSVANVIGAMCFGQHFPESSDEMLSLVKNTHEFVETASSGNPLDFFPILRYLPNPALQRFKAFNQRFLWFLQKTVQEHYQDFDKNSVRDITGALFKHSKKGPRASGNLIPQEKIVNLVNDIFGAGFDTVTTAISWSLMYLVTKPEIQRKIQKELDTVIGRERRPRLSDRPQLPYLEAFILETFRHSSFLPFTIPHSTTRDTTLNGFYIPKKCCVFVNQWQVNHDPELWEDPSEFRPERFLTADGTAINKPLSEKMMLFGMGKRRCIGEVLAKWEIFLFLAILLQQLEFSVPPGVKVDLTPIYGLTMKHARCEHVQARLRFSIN
# Cytochrome P450 2C19 = Cytochrome P450 2C19 (Homo sapiens, UniProt P33261); assay: Cytochrome panel assay with activity outcomes. Panel member name: p450-cyp2c19 Compounds with AC50 equal or less than 10 uM are considered active; assay type: functional; conditions: read-out: AC50
# Cytochrome P450 2C19, sequence (P33261 whole entry): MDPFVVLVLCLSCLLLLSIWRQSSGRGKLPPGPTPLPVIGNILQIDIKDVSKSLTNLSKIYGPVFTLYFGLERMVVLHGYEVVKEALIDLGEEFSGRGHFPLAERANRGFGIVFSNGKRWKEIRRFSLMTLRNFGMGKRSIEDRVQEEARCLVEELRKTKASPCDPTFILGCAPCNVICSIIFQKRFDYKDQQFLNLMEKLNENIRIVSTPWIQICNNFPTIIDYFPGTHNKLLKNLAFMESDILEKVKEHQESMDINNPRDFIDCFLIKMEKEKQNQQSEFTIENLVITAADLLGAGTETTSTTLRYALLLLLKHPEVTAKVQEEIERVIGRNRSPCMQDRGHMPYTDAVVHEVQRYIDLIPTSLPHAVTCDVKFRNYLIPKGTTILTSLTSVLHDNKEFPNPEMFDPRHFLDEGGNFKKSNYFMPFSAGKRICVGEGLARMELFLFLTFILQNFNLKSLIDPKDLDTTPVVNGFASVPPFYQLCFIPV
# [15] = molecular target: T2, Sphingosine 1-phosphate receptor 1; assay: Fluorescence-based counterscreen assay for S1P4 agonists: Cell-based dose response high throughput screening assay to identify agonists of the Sphingosine 1-Phosphate Receptor 1 (S1P1). [Related pubchem assays (depositor defined):AID1509, AID1523, AID1801, AID463107, AID463118, AID463119, AID463122, AID463123, AID463129, AID463225, AID504400, AID504460]; assay type: functional
# [16] = molecular target: T3, Sphingosine 1-phosphate receptor 4; assay: Fluorescence dose response cell-based high throughput screening assay for agonists of the Sphingosine 1-Phosphate Receptor 4 (S1P4). [Related pubchem assays: 1509 (Primary screen.), 1523 (Confirmation screen in triplicates.)]; assay type: functional
# Cytochrome P450 1A2 [17] = molecular target: T5, Cytochrome P450 1A2; remark: listed apart in the source
# Cytochrome P450 2D6 = Cytochrome P450 2D6 (Homo sapiens, UniProt P10635);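 further: CYP2D6 member of a cytochrome P450 panel assay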
# Cytochrome P450 2D6, sequence (P10635 whole entry): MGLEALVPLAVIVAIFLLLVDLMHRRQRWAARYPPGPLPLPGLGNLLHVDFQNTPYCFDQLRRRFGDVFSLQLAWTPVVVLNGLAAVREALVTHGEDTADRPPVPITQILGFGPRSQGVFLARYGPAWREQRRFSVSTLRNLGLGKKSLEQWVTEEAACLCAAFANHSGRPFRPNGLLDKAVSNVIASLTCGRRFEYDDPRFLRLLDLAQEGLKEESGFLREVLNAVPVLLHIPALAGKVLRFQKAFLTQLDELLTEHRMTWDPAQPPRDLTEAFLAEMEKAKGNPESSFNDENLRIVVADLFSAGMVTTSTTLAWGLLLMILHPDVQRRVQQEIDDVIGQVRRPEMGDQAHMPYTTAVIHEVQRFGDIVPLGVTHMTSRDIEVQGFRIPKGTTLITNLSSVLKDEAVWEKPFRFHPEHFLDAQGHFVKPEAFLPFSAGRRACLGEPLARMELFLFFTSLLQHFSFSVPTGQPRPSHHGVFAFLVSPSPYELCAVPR
# UDP-galactopyranose mutase, sequence (P9WIQ1 whole entry, the tested form may be a part): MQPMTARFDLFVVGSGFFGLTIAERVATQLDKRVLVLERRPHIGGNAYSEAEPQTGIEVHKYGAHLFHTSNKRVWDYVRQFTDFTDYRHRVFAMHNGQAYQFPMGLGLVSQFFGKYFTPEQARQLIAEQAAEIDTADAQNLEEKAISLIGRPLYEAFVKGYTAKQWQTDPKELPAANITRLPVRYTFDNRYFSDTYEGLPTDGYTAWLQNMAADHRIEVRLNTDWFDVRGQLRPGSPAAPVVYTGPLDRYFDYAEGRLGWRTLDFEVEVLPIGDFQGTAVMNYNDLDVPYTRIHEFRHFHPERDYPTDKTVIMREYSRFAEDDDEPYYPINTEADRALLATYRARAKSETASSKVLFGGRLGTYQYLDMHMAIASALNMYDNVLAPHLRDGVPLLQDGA
compound,measurement,setting,value
COCCNC(=O)Cn1cc(/C=C2\C(=O)NC(=O)N(c3ccccc3F)C2=O)c2ccccc21,AC50,[1],32.1 µM (active)
same,EC50,[2],6.32 µM (active)
CCOC(=O)/C(=C\c1ccc(OC(F)F)cc1)C1=Nn2c(nnc2-c2ccc(Cl)cc2)SC1,IC50,[3],6.1 µM (active)
same,IC50,[4],0.342 µM (active)
same,EC50,[5],9.67 µM (active)
same,IC50,[6],0.614 µM (active)
same,EC50,Integrin alpha-4,11.8 µM (active)
same,EC50,[7],> 32 µM (inactive)
same,IC50,[8],0.168 µM (active)
same,IC50,[9],0.494 µM (active)
same,IC50,[10],0.351 µM (active)
same,IC50,[11],0.034 µM (active)
same,AC50,INS1,4.22 µM (active)
same,EC50,[12],6.62 µM (active)
same,EC50,[13],10.2 µM (active)
COC(=O)c1c(-n2c(C)cc(C=O)c2C)sc2c1CCCC2,AC50,Cytochrome P450 1A2 [14],5.01 µM (inconclusive)
same,AC50,Cytochrome P450 2C19,0.794 µM (inconclusive)
same,EC50,[15],> 49.8 µM (inactive)
same,EC50,[16],> 49.8 µM (not active)
COc1ccccc1CN1CC2(CCN(S(C)(=O)=O)CC2)C1,AC50,Cytochrome P450 1A2 [17],inconclusive
same,AC50,Cytochrome P450 2D6,inconclusive
